Assay results reported in paper PMC10066365, “Nemacol is a small molecule inhibitor of C. elegans vesicular acetylcholine transporter with anthelmintic potential” (Nature Communications, 2023).
Several values for one entry are separate records, joined by “and”; a condition that tells them apart may be missing. Equal entries are not always repeated. Where two headings read alike, the source gives them in different places.

How the values were obtained:
[1] = tested on: Dirofilaria immitis microfilariae; assay: Dirofilaria immitis microfilariae immobility assay (DiroImager, 72 h); conditions: Dirofilaria immitis microfilariae
In short: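 Motility read after 72 h drug exposure with an image-based high-throughput plate imager, 1% DMSO medium serving as negative control. Missouri-isolate microfilariae, roughly 250 per well, freshly purified and cultured in supplemented RPMI 1640.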

Pristionchus pacificus = Pristionchus pacificus motor disruption dose-response on solid media, 1 h; conditions: for EC50: Pristionchus pacificus, 1 h, read-out: P. pacificus motor disruption EC50; for mean % any phene: any phenotype (coiled, jerky-Unc or paralyzed) at one hour, mean of three biological replicates; for rep 1 atypical locomotion / rep 1 coiled / rep 1 no phene / rep 1 paralyzed / rep 2 atypical locomotion / rep 2 coiled / rep 2 no phene / rep 2 paralyzed / rep 3 atypical locomotion / rep 3 coiled / rep 3 no phene / rep 3 paralyzed: count of 20 animals per trial, one hour
[2] = tested on: Dirofilaria immitis L3/L4; assay: Dirofilaria immitis L3/L4 motility assay (DiroImager, 72 h); conditions: Dirofilaria immitis L4
C. elegans = C. elegans motor phenotype scoring on solid media (Punc/jerky-unc, coiled, paralyzed), wild-type young adults; type: in vivo, Caenorhabditis elegans; conditions: for atypical locomotion (number of animals) / coiled (number of animals) / no phene (number of animals) / paralyzed (number of animals) / any phene: mean % fraction of young adults exhibiting any phenotype (coiled, jerky-Unc or paralyzed): one hour; for atypical locomotion (number of animals) / coiled (number of animals) / no phene (number of animals) / paralyzed (number of animals): young adults, 20 animals per trial, single technical replicate; for any phene: mean % fraction of young adults exhibiting any phenotype (coiled, jerky-Unc or paralyzed): mean of three biological replicates; for EC50: Caenorhabditis elegans, any motor phenotype after 1 h on solid media, ± 95% CI, read-out: C. elegans - motor disruption EC50
rat VAChT = target: T1, rat VAChT (Rattus norvegicus, UniProt Q62666); assay: [3H]Vesamicol competitive radioligand binding, PC12 cells expressing ratVAChT
T1 construct: expressed in transfected cells; host or cells: rat PC12 (PC12 A123.7) cells, stably transfected; shared by Dr. Ali Roghani (Texas Tech University)
T1 sequence (Q62666 1-530): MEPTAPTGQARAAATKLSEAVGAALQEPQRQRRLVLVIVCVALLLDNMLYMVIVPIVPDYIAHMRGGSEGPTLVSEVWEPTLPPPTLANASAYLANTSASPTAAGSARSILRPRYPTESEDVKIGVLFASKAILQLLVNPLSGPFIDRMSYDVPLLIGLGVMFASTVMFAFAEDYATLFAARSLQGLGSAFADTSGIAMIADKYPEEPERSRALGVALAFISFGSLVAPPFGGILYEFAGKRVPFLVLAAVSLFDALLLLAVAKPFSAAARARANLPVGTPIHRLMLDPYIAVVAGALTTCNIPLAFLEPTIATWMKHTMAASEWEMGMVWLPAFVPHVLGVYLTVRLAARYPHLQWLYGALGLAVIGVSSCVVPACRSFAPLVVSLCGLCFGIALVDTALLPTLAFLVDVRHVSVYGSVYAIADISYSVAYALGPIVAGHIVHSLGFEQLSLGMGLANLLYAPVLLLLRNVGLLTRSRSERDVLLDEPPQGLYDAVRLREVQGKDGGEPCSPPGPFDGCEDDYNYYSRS

[3] = [3H]Vesamicol binding, PC12, experiment 1, read-out: expt 1 Ki (M) vs. rat VAChT (PC12)
[4] = [3H]Vesamicol binding, PC12, experiment 2, read-out: expt 2 Ki (M) vs. rat VAChT (PC12)
[5] = [3H]Vesamicol binding, rat VAChT (PC12), mean of 2-3 experiments, read-out: mean Ki
[6] = [3H]Vesamicol displacement, mean, read-out: ratVAChT Ki

For `FC(F)(F)c1cccc(N2CCN(CC3CCCC3)CC2)c1` [Nemacol-63], the “% effect (motility), DIROIM MF” value ([1]; 0.016 µM) was 0%, the “% effect (motility), DIROIM MF” value ([1]; 0.08 µM) was 0% and the “% effect (motility), DIROIM MF” value ([1]; 0.4 µM) was 0%. The “% effect (motility), DIROIM MF” value ([1]; 2 µM) was 0%, the “% effect (motility), DIROIM MF” value ([1]; 10 µM) was 0% and the EC50 (Pristionchus pacificus) was over 60 µM. The “mean % any phene” value (Pristionchus pacificus; conc 3.75) was 0.8333%, the “rep 1 atypical locomotion” value (Pristionchus pacificus; conc 3.75) was 0 and the “rep 1 coiled” value (Pristionchus pacificus; conc 3.75) was 0. For the same molecule, the “rep 1 no phene” value (Pristionchus pacificus; conc 3.75) was 20, the “rep 1 paralyzed” value (Pristionchus pacificus; conc 3.75) was 0 and the “rep 2 atypical locomotion” value (Pristionchus pacificus; conc 3.75) was 1. For the same molecule, the “rep 2 coiled” value (Pristionchus pacificus; conc 3.75) was 0, the “rep 2 no phene” value (Pristionchus pacificus; conc 3.75) was 19 and the “rep 2 paralyzed” value (Pristionchus pacificus; conc 3.75) was 0. The “rep 3 atypical locomotion” value (Pristionchus pacificus; conc 3.75) was 0, the “rep 3 coiled” value (Pristionchus pacificus; conc 3.75) was 0 and the “rep 3 no phene” value (Pristionchus pacificus; conc 3.75) was 20. For the same molecule, the “rep 3 paralyzed” value (Pristionchus pacificus; conc 3.75) was 0, the “mean % any phene” value (Pristionchus pacificus; conc 15) was 1.667% and the “rep 1 atypical locomotion” value (Pristionchus pacificus; conc 15) was 0. The “rep 1 coiled” value (Pristionchus pacificus; conc 15) was 0, the “rep 1 no phene” value (Pristionchus pacificus; conc 15) was 20 and the “rep 1 paralyzed” value (Pristionchus pacificus; conc 15) was 0. The “rep 2 atypical locomotion” value (Pristionchus pacificus; conc 15) was 0, the “rep 2 coiled” value (Pristionchus pacificus; conc 15) was 0 and the “rep 2 no phene” value (Pristionchus pacificus; conc 15) was 19 and 20. For the same molecule, the “rep 3 atypical locomotion” value (Pristionchus pacificus; conc 15) was 0, the “rep 3 coiled” value (Pristionchus pacificus; conc 15) was 0 and the “rep 3 no phene” value (Pristionchus pacificus; conc 15) was 20 and 19. The “mean % any phene” value (Pristionchus pacificus; conc 60) was 10.8333%, the “rep 1 atypical locomotion” value (Pristionchus pacificus; conc 60) was 4 and 3 and the “rep 1 no phene” value (Pristionchus pacificus; conc 60) was 16. The “rep 1 paralyzed” value (Pristionchus pacificus; conc 60) was 0, the “rep 2 atypical locomotion” value (Pristionchus pacificus; conc 60) was 1 and 2 and the “rep 2 coiled” value (Pristionchus pacificus; conc 60) was 0. The “rep 2 no phene” value (Pristionchus pacificus; conc 60) was 18, the “rep 3 coiled” value (Pristionchus pacificus; conc 60) was 0 and the “rep 3 no phene” value (Pristionchus pacificus; conc 60) was 20 and 19. The “rep 3 paralyzed” value (Pristionchus pacificus; conc 60) was 0, the “% effect (motility), DIROIM L4” value ([2]; 10 µM) was 10% and the “% effect (motility), DIROIM L4” value ([2]; 50 µM) was 0%. For the same molecule, the “atypical locomotion (number of animals)” value (C. elegans; 3.75uM) was 0 and 4 and 6 and 2, the “coiled (number of animals)” value (C. elegans; 3.75uM) was 0 and the “no phene (number of animals)” value (C. elegans; 3.75uM) was 20 and 16 and 14 and 18. For the same molecule, the “paralyzed (number of animals)” value (C. elegans; 3.75uM) was 0, the “any phene: mean % fraction of young adults exhibiting any phenotype (coiled, jerky-Unc or paralyzed)” value (“any phene: mean % fraction” below) (C. elegans; 3.75uM) was 18.3333% and the “atypical locomotion (number of animals)” value (C. elegans; 15uM) was 14 and 16 and 18 and 15 and 17. For the same molecule, the “coiled (number of animals)” value (C. elegans; 15uM) was 3 and 0 and 2 and 1, the “no phene (number of animals)” value (C. elegans; 15uM) was 0 and 4 and 3 and the “paralyzed (number of animals)” value (C. elegans; 15uM) was 3 and 4 and 0. The “any phene: mean % fraction” value (C. elegans; 15uM) was 94.1667%, the “atypical locomotion (number of animals)” value (C. elegans; 60uM) was 8 and 10 and 11 and 9 and 14 and 15 and the “coiled (number of animals)” value (C. elegans; 60uM) was 1 and 3 and 2 and 4. The “no phene (number of animals)” value (C. elegans; 60uM) was 0 and 5 and 1, the “paralyzed (number of animals)” value (C. elegans; 60uM) was 11 and 7 and 9 and 0 and the “any phene: mean % fraction” value (C. elegans; 60uM) was 95%. The EC50 (C. elegans) was 6.1 ± 2.1 µM, the “activity ratio, mammalian VAChT Ki to C. elegans in vivo EC50” value (rat VAChT) was 1.10 and the Ki (rat VAChT; [3]) was 4.89e-06 M. It also gave a Ki (rat VAChT; [4]) of 8.47e-06 M, a Ki (rat VAChT; [5]) of 6.68e-06 M and a Ki (rat VAChT; [6]) of 6.68e-06 M.

`c1ccc(N2CCN(C3CCCCCC3)CC2)cc1` [Nemacol-59] was tested, and the “% effect (motility), DIROIM MF” value ([1]; 0.016 µM) was 0%, the “% effect (motility), DIROIM MF” value ([1]; 0.08 µM) was 0% and the “% effect (motility), DIROIM MF” value ([1]; 0.4 µM) was 0%. The “% effect (motility), DIROIM MF” value ([1]; 2 µM) was 0%, the “% effect (motility), DIROIM MF” value ([1]; 10 µM) was 0% and the EC50 (Pristionchus pacificus) was over 60 µM. The “mean % any phene” value (Pristionchus pacificus; conc 3.75) was 0%, the “rep 1 atypical locomotion” value (Pristionchus pacificus; conc 3.75) was 0 and the “rep 1 coiled” value (Pristionchus pacificus; conc 3.75) was 0. The “rep 1 no phene” value (Pristionchus pacificus; conc 3.75) was 20, the “rep 1 paralyzed” value (Pristionchus pacificus; conc 3.75) was 0 and the “rep 2 atypical locomotion” value (Pristionchus pacificus; conc 3.75) was 0. For the same molecule, the “rep 2 coiled” value (Pristionchus pacificus; conc 3.75) was 0, the “rep 2 no phene” value (Pristionchus pacificus; conc 3.75) was 20 and the “rep 2 paralyzed” value (Pristionchus pacificus; conc 3.75) was 0. For the same molecule, the “rep 3 atypical locomotion” value (Pristionchus pacificus; conc 3.75) was 0, the “rep 3 coiled” value (Pristionchus pacificus; conc 3.75) was 0 and the “rep 3 no phene” value (Pristionchus pacificus; conc 3.75) was 20. For the same molecule, the “rep 3 paralyzed” value (Pristionchus pacificus; conc 3.75) was 0, the “mean % any phene” value (Pristionchus pacificus; conc 15) was 0% and the “rep 1 atypical locomotion” value (Pristionchus pacificus; conc 15) was 0. The “rep 1 coiled” value (Pristionchus pacificus; conc 15) was 0, the “rep 1 no phene” value (Pristionchus pacificus; conc 15) was 20 and the “rep 1 paralyzed” value (Pristionchus pacificus; conc 15) was 0. For the same molecule, the “rep 2 atypical locomotion” value (Pristionchus pacificus; conc 15) was 0, the “rep 2 coiled” value (Pristionchus pacificus; conc 15) was 0 and the “rep 2 no phene” value (Pristionchus pacificus; conc 15) was 20. For the same molecule, the “rep 2 paralyzed” value (Pristionchus pacificus; conc 15) was 0, the “rep 3 atypical locomotion” value (Pristionchus pacificus; conc 15) was 0 and the “rep 3 coiled” value (Pristionchus pacificus; conc 15) was 0. The “rep 3 no phene” value (Pristionchus pacificus; conc 15) was 20, the “rep 3 paralyzed” value (Pristionchus pacificus; conc 15) was 0 and the “mean % any phene” value (Pristionchus pacificus; conc 60) was 5.833%. The “rep 1 atypical locomotion” value (Pristionchus pacificus; conc 60) was 4 and 2, the “rep 1 coiled” value (Pristionchus pacificus; conc 60) was 0 and the “rep 1 no phene” value (Pristionchus pacificus; conc 60) was 16 and 18. The “rep 1 paralyzed” value (Pristionchus pacificus; conc 60) was 0, the “rep 2 atypical locomotion” value (Pristionchus pacificus; conc 60) was 0 and the “rep 2 no phene” value (Pristionchus pacificus; conc 60) was 19 and 20. For the same molecule, the “rep 2 paralyzed” value (Pristionchus pacificus; conc 60) was 0, the “rep 3 atypical locomotion” value (Pristionchus pacificus; conc 60) was 0 and the “rep 3 coiled” value (Pristionchus pacificus; conc 60) was 0. For the same molecule, the “rep 3 no phene” value (Pristionchus pacificus; conc 60) was 20, the “rep 3 paralyzed” value (Pristionchus pacificus; conc 60) was 0 and the “% effect (motility), DIROIM L4” value ([2]; 10 µM) was 30%. The “% effect (motility), DIROIM L4” value ([2]; 50 µM) was 25%, the “atypical locomotion (number of animals)” value (C. elegans; 3.75uM) was 5 and 4 and 7 and 2 and the “coiled (number of animals)” value (C. elegans; 3.75uM) was 0. For the same molecule, the “no phene (number of animals)” value (C. elegans; 3.75uM) was 15 and 16 and 13, the “paralyzed (number of animals)” value (C. elegans; 3.75uM) was 0 and 2 and the “any phene: mean % fraction” value (C. elegans; 3.75uM) was 24.1667%. The “atypical locomotion (number of animals)” value (C. elegans; 15uM) was 15 and 17 and 14 and 16 and 18, the “coiled (number of animals)” value (C. elegans; 15uM) was 0 and 1 and 3 and 2 and the “no phene (number of animals)” value (C. elegans; 15uM) was 0 and 2. For the same molecule, the “paralyzed (number of animals)” value (C. elegans; 15uM) was 5 and 3 and 0, the “any phene: mean % fraction” value (C. elegans; 15uM) was 98.3333% and the “atypical locomotion (number of animals)” value (C. elegans; 60uM) was 1 and 4 and 8 and 5 and 3. For the same molecule, the “coiled (number of animals)” value (C. elegans; 60uM) was 12 and 6 and 4 and 7, the “no phene (number of animals)” value (C. elegans; 60uM) was 0 and the “paralyzed (number of animals)” value (C. elegans; 60uM) was 7 and 10 and 8 and 9 and 11. For the same molecule, the EC50 (C. elegans) was 5.1 ± 0.5 µM, the Ki (rat VAChT; [3]) was 1.85e-06 M and the Ki (rat VAChT; [4]) was 1.68e-06 M. For the same molecule, the Ki (rat VAChT; [5]) was 1.76e-06 M and the Ki (rat VAChT; [6]) was 1.76e-06 M.
